Results: patent publication US7420062B2, “Hetaryl-substituted pyrazolidindione derivatives with pesticidal characteristics” (Bayer CropScience, AG, priority 2003, dated 2008)

How the values were obtained:
[1] = tested on: green peach aphid (Myzus persicae); assay: Myzus test (spray treatment); format: in vivo; settings: 100 g/ha, spray treatment of Chinese cabbage discs
Procedure: Myzus Test—(Spray Treatment) Solvents: 78 parts by weight of acetone 1.5 parts by weight of dimethylformamide Emulsifier: 0.5 part by weight of alkylaryl polyglycol ether To produce a suitable preparation of active compound, 1 part by weight of active compound is mixed with the stated amount of solvents and the stated amount of emulsifier, and the concentrate is diluted with emulsifier-containing water to the desired concentration. Discs of Chinese cabbage (Brassica pekinensis) which are infested by all stages of the green peach aphid (Myzus persicae) are sprayed with a preparation of active compound of the desired concentration. After the desired period of time, the effect in % is determined. 100% means that all aphids have been killed; 0% means that none of the aphids have been killed.

Setaria [2] = assay: Herbicidal post-emergence action, greenhouse; format: in vivo; settings: 1000 g a.i./ha, rated visually after 2 weeks, 100% = plants have died
Procedure: (§1) 2. Herbicidal Post-emergence Action Seeds of monocotyledonous and dicotyledonous weed and crop plants are placed into sandy loam, covered with soil and cultivated in a greenhouse under good growth conditions. About 2 weeks after sowing, the test plants are treated at the one-leaf stage. The test compounds, formulated as emulsion concentrates (EC), are, in various dosages with a water application rate of 800 l/ha (converted), with wetting agents added, sprayed onto the green parts of the plants. After the test plants have, been kept in the greenhouse under optimum growth conditions for 2 weeks, the effect of the preparations is rated visually in comparison to untreated controls (herbicidal effect in percent (%): 100% effect=the plants have died, 0% effect=like control plants).

Lolium [3] = assay: Herbicidal post-emergence action, greenhouse; format: in vivo; settings: 1000 g a.i./ha, rated visually after 2 weeks, 100% = plants have died
Procedure: as §1

Echinoclora = assay: Herbicidal post-emergence action, greenhouse; format: in vivo; settings: 1000 g a.i./ha, rated visually after 2 weeks, 100% = plants have died
Procedure: as §1

Setaria [4] = assay: Herbicidal pre-emergence action, greenhouse; format: in vivo; settings: 1000 g a.i./ha, visual assessment after 2 to 3 weeks, 100% = plants have died
From the text: (§2) 1. Herbicidal Pre-emergence Action Seeds of monocotyledonous and dicotyledonous weed and crop plants are placed into sandy loam and covered with soil. The test compounds, formulated in the form of emulsion concentrates (EC), are, in various dosages with a water application rate of 800 l/ha (converted), with wetting agent added, applied to the surface of the covering soil. After the treatment, the pots are placed in a greenhouse and kept under good growth conditions for the test plants. The visual assessment of the emergence damage on the test plants is carried out after a trial period of 2 to 3 weeks by comparison with untreated controls (herbicidal effect in percent (%): 100% effect=the plants have died, 0% effect=like control plants).

Lolium [5] = assay: Herbicidal pre-emergence action, greenhouse; format: in vivo; settings: 1000 g a.i./ha, visual assessment after 2 to 3 weeks, 100% = plants have died
From the text: as §2

For Cc1scnc1-c1c(O)n2n(c1=O)CCCC2 (single isomer, unassigned) [Example I-3-b-2], which melting point is on record?
Its melting point is 86 °C.

Which “Kill rate in % after 5 d” value [1] does the source give for CCCc1cc(-c2ccc(Cl)cc2)nn1-c1c(O)n2n(c1=O)CCCC2 [Example I-3-a-1] here?
Its value is 100%.

And the “herbicidal effect in percent, Setaria” value (Setaria [2])?
The value was 100%.

What about the “herbicidal effect in percent, Lolium” value (Lolium [3]) of the same molecule?
The value was 90%.

What about the “herbicidal effect in percent, Echinoclora” value (Echinoclora) of the same molecule?
Its value is 100%.

And the “herbicidal effect in percent, Setaria” value (Setaria [4])?
Its value is 100%.

And the “herbicidal effect in percent, Lolium” value (Lolium [5])?
The value was 100%.

With Cc1scnc1-c1c(O)n2n(c1=O)CCCC2 (single isomer, unassigned) [Example I-3-b-3] as the molecule, how does the melting point read?
Its melting point is 182 °C.
